Legend:
Z-138 cells = test: Z-138 Proliferation Assay (Cell Titer Glo, 5 days); assay type: cell-based; details: Homo sapiens, 120 h
From the text: Z-138 Proliferation Assay
Z-138 suspension cells were purchased from ATCC (American Type Culture Collection, Manassas, Va.). RPMI/Glutamax medium, penicillin-streptomycin, heat inactivated fetal bovine serum were purchased from Life Technologies, Grand Island, N.Y., USA. V-bottom polypropylene 384-well plates were purchased from Greiner Bio-One, Monroe, N.C., USA. Cell culture 384-well white opaque plates were purchased from Perkin Elmer, Waltham, Mass., USA. Cell-Titer Glo® was purchased from Promega Corporation, Madison, Wis., USA. SpectraMax M5 plate reader was purchased from Molecular Devices LLC, Sunnyvale, Calif., USA.
Z-138 suspension cells were maintained in growth medium (RPMI 1640 supplemented with 10% v/v heat inactivated fetal bovine serum and cultured at 37° C. under 5% CO2. Under assay conditions, cells were incubated in assay medium (RPMI 1640 supplemented with 10% v/v heat inactivated fetal bovine serum and 100 units/mL penicillin-streptomycin) at 37° C. under 5% CO2.
For the assessment of the effect of compounds on the proliferation of the Z-138 cell line, exponentially growing cells were plated in 384-well white opaque plates at a density of 10,000 cells/ml in a final volume of 50 μl of assay medium. A compound source plate was prepared by performing triplicate nine-point 3-fold serial dilutions in DMSO, beginning at 10 mM (final top concentration of compound in the assay was 20 μM and the DMSO was 0.2%). A 100 nL aliquot from the compound stock plate was added to its respective well in the cell plate. […] After addition of compounds, assay plates were incubated for 5 days at 37° C., 5% CO2, relative humidity >90%.
Cell viability was measured by quantitation of ATP present in the cell cultures, adding 35 μl of Cell Titer Glo® reagent to the cell plates. Luminescence was read in the SpectraMax M5 microplate reader. The concentration of compound inhibiting cell viability by 50% was determined using a 4-parametric fit of the normalized dose response curves.

PRMT5/MEP50 = target: T1, PRMT5/MEP50 (Homo sapiens, UniProt O14744); test: PRMT5 Biochemical Assay (PRMT5/MEP50 enzyme assay on histone H4 peptide substrate, 3H-SAM Flashplate); details: PRMT5 biochemical assay; read-out: Biochemical IC50
T1 construct: Flag-PRMT5; made in house; host or cells: Spodoptera frugiperda (SF9), baculovirus
Method in brief: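 Sf9-expressed Flag-PRMT5/6His-MEP50 preincubated with compound 30 min at 25 °C, then methylation of biotinylated H4 1-15 peptide started with ³H-SAM in 20 mM Bicine pH 7.6, 1 mM TCEP, 0.005% BSG, 0.002% Tween20.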

[1] = tested on: symmetric di-methyl arginine in Z-138 cells; test: Z-138 Methylation Assay (In Cell Western for symmetric di-methyl arginine and DNA content); assay type: cell-based; details: Homo sapiens, read-out: ICW EC50
From the text: Z-138 suspension cells were purchased from ATCC (American Type Culture Collection, Manassas, Va.). RPMI/Glutamax medium, penicillin-streptomycin, heat inactivated fetal bovine serum, and D-PBS were purchased from Life Technologies, Grand Island, N.Y., USA. Odyssey blocking buffer, 800CW goat anti-rabbit IgG (H+L) antibody, and Licor Odyssey infrared scanner were purchased from Licor Biosciences, Lincoln, Nebr., USA. Symmetric di-methyl arginine antibody was purchased from EMD Millipore, Billerica, Mass., USA. 16% Paraformaldehyde was purchased from Electron Microscopy Sciences, Hatfield, Pa., USA.
Z-138 suspension cells were maintained in growth medium (RPMI 1640 supplemented with 10% v/v heat inactivated fetal bovine serum and 100 units/mL penicillin-streptomycin) and cultured at 37° C. under 5% CO2.
Cell Treatment, in Cell Western (ICW) for Detection of Symmetric Di-Methyl Arginine and DNA Content.
Z-138 cells were seeded in assay medium at a concentration of 50,000 cells per mL to a 384-well cell culture plate with 50 μL per well. Compound (100 nL) from 384 well source plates was added directly to 384 well cell plate. Plates were incubated at 37° C., 5% CO2 for 96 hours. After four days of incubation, 40 μL of cells from incubated plates were added to poly-D-lysine coated 384 well culture plates (BD Biosciences 356697). Plates were incubated at room temperature for 30 minutes then incubated at 37° C., 5% CO2 for 5 hours. After the incubation, 40 μL per well of 8% paraformaldehyde in PBS (16% paraformaldahyde was diluted to 8% in PBS) was added to each plate and incubated for 30 minutes. Plates were transferred to a Biotek 405 plate washer and washed 5 times with 100 μL per well of wash buffer (1×PBS with 0.1% Triton X-100 (v/v)). Next 30 μL per well of Odyssey blocking buffer were added to each plate and incubated 1 hour at room temperature. Blocking buffer was removed and 20 μL per well of primary antibody was added (symmetric di-methyl arginine diluted 1:100 in Odyssey buffer with 0.1% Tween 20 (v/v)) and plates were incubated overnight (16 hours) at 4° C. Plates were washed 5 times with 100 μL per well of wash buffer. Next 20 μL per well of secondary antibody was added (1:200 800CW goat anti-rabbit IgG (H+L) antibody, 1:1000 DRAQ5 (Biostatus limited) in Odyssey buffer with 0.1% Tween 20 (v/v)) and incubated for 1 hour at room temperature. The plates were washed 5 times with 100 μL per well wash buffer then 1 time with 100 μL per well of water. Plates were allowed to dry at room temperature then imaged on the Licor Odyssey machine which measures integrated intensity at 700 nm and 800 nm wavelengths. Both 700 and 800 channels were scanned.
First, the ratio for each well was determined by:
Each plate included fourteen control wells of DMSO only treatment (minimum inhibition) as well as fourteen control wells for maximum inhibition treated with 3 μM of a reference compound (Background wells). The average of the ratio values for each control type was calculated and used to determine the percent inhibition for each test well in the plate. Reference compound was serially diluted three-fold in DMSO for a total of nine test concentrations, beginning at 3 μM. Percent inhibition was determined and IC50 curves were generated using triplicate wells per concentration of compound.

T1 sequence (O14744 with tags, fused parts or gaps): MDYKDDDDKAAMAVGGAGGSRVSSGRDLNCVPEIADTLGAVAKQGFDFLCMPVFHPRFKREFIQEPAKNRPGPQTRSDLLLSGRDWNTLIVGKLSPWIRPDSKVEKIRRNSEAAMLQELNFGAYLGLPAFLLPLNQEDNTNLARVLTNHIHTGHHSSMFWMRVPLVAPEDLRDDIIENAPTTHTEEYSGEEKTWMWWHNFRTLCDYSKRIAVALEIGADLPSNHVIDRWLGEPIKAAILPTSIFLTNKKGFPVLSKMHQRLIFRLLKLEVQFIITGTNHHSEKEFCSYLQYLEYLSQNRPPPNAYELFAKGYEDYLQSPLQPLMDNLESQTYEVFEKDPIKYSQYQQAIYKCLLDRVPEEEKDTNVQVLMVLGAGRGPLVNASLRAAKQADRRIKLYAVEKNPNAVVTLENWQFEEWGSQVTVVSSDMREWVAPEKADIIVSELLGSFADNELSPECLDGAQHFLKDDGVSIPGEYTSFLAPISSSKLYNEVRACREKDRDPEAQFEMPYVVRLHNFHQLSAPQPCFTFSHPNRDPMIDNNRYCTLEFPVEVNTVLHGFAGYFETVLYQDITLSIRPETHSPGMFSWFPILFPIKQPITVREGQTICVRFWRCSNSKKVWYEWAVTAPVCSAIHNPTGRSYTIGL
T1 sequence (Q9BQA1 with tags, fused parts or gaps partner limits assumed): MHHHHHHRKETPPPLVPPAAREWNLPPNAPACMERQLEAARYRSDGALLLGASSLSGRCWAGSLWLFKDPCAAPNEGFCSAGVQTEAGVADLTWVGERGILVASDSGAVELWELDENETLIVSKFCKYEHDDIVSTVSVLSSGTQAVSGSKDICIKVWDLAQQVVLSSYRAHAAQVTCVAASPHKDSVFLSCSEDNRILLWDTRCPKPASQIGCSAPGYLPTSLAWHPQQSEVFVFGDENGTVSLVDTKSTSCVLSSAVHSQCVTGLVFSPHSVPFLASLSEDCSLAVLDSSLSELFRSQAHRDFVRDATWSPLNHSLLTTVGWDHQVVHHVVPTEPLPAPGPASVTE

Q: What does the source list for O=C(NC[C@H](O)CN1Cc2ccccc2C1)c1cc(NC2CNC2)ncn1 [Compound 4-11]?
A: EC50 (Z-138 cells): > 1000 nM; IC50 (PRMT5/MEP50): 101 to 1000 nM; EC50 [1]: 101 to 1000 nM

Q: CC(=O)c1ccc(NC(=O)CC2NC(N3CCN(Cc4ccccc4)CC3)=NC2=O)cc1 (stereo not drawn) [Compound 3-14] was tested. Which EC50 (Z-138 cells) did it give?
A: The EC50 was > 20000 nM.

Q: What about the IC50 (PRMT5/MEP50) of the same compound?
A: The IC50 was 1000 to 10000 nM.

Q: And the EC50 [1]?
A: The EC50 was > 20000 nM.

Q: For O=C(NC[C@H](O)CN1CCc2ccccc2C1)c1cc(NC2CCN(CC(F)(F)F)CC2)ncn1 [Compound 3-9], which EC50 (Z-138 cells) is on record?
A: The EC50 was 101 to 1000 nM.

Q: What about the IC50 (PRMT5/MEP50) of the same compound?
A: The IC50 was < 100 nM.

Q: And the EC50 [1]?
A: The EC50 was < 100 nM.

Q: How did the EC50 (Z-138 cells) turn out when Nc1ncnc2c1ncn2[C@@H]1O[C@H](CSCC[C@@H](N)CO)[C@@H](O)[C@H]1O [Compound 92-1, (2S, 3S, 4R, 5R)-2-((((R)-3-amino-4-hydroxybutyl)thio)methyl)-5-(6-amino-9H-purin-9-yl)tetrahydrofuran-3,4-diol] was run?
A: Its EC50 is 10000 to 50000 nM.

Q: What about the IC50 (PRMT5/MEP50) of the same compound?
A: Its IC50 is < 100 nM.

Q: What about the EC50 [1] of the same compound?
A: Its EC50 is 1000 to 10000 nM.

Q: What does the source list for Cc1ccccc1N1CC(NS(=O)(=O)c2cccc3c(N(C)C)cccc23)CC1=O (stereo not drawn) [Compound 4-4]?
A: EC50 (Z-138 cells): 10000 to 50000 nM; IC50 (PRMT5/MEP50): 101 to 1000 nM; EC50 [1]: 101 to 1000 nM

Q: Which results are given for CCOc1c(C)cc(S(=O)(=O)NCC2CCN(Cc3ccccc3Br)CC2)cc1C [Compound 4-3]?
A: EC50 (Z-138 cells): > 20000 nM; IC50 (PRMT5/MEP50): 101 to 1000 nM

Q: Which EC50 (Z-138 cells) does the source give for O=C(NC[C@H](O)CN1Cc2ccccc2C1)c1cc(NC2COC2)nc(N2CCOCC2)n1 [Compound 8-11] here?
A: Its EC50 is 1000 to 10000 nM.

Q: What about the IC50 (PRMT5/MEP50) of the same compound?
A: The IC50 was < 100 nM.

Q: And the EC50 [1]?
A: The EC50 was < 100 nM.

Q: Which results are given for COc1ccc(Cn2c(CN3CCCCC3)cnc2CN)cc1 [Compound 4-13]?
A: EC50 (Z-138 cells): > 5000 nM; IC50 (PRMT5/MEP50): 10000 to 50000 nM; EC50 [1]: > 1000 nM

Q: For CN(C)c1cccc2c(S(=O)(=O)NC3CC(=O)N(c4ccccc4N)C3)cccc12 (stereo not drawn) [Compound 7-4], which EC50 (Z-138 cells) is on record?
A: Its EC50 is 1000 to 10000 nM.

Q: And the IC50 (PRMT5/MEP50)?
A: The IC50 was < 100 nM.

Q: What about the EC50 [1] of the same compound?
A: Its EC50 is < 100 nM.

Q: CCOc1c(C)cc(S(=O)(=O)NCC2CCN(Cc3ccc4ncccc4c3)CC2)cc1C [Compound 6-3] was tested. Which EC50 (Z-138 cells) did it give?
A: Its EC50 is > 20000 nM.

Q: What about the IC50 (PRMT5/MEP50) of the same compound?
A: Its IC50 is 101 to 1000 nM.

Q: How did the EC50 (Z-138 cells) turn out when CC(=O)N1CC(Nc2cc(C(=O)NC[C@H](O)CN3Cc4ccccc4C3)ncn2)C1 [Compound 5-11] was run?
A: Its EC50 is 1000 to 10000 nM.

Q: And the IC50 (PRMT5/MEP50)?
A: The IC50 was < 100 nM.

Q: And the EC50 [1]?
A: The EC50 was 101 to 1000 nM.

Q: O=C(NC[C@H](O)CN1Cc2ccccc2C1)c1ccnc(NC2CCNC2)c1 (stereo partly drawn) [Compound 1-11] was tested. Which EC50 (Z-138 cells) did it give?
A: Its EC50 is > 20000 nM.

Q: What about the IC50 (PRMT5/MEP50) of the same compound?
A: Its IC50 is 101 to 1000 nM.

Q: How did the EC50 (Z-138 cells) turn out when CCOc1c(C)cc(S(=O)(=O)NCC2CCN(Cc3cccc4c3OCO4)CC2)cc1C [Compound 5-3] was run?
A: The EC50 was > 20000 nM.

Q: What about the IC50 (PRMT5/MEP50) of the same compound?
A: Its IC50 is 101 to 1000 nM.

Q: CCOc1c(C)cc(S(=O)(=O)NCC2CCN(Cc3ccccc3-c3ccccc3)CC2)cc1C [Compound 7-3] was tested. Which EC50 (Z-138 cells) did it give?
A: The EC50 was > 20000 nM.

Q: What about the IC50 (PRMT5/MEP50) of the same compound?
A: The IC50 was 101 to 1000 nM.

Q: Which EC50 (Z-138 cells) does the source give for CCOc1c(C)cc(S(=O)(=O)NCC2CCN(Cc3ccc4ccccc4c3)CC2)cc1C [Compound 10-3] here?
A: The EC50 was > 20000 nM.

Q: And the IC50 (PRMT5/MEP50)?
A: Its IC50 is 101 to 1000 nM.

Q: CC(=O)N1CCC(Nc2cc(C(=O)NC[C@H](O)CNCc3ccccc3)ccn2)CC1 [Compound 1-8, (R)-2-((1-acetylpiperidin-4-yl)amino)-N-(3-(benzylamino)-2-hydroxypropyl)isonicotinamide] was tested. Which EC50 (Z-138 cells) did it give?
A: The EC50 was > 5000 nM.

Q: And the IC50 (PRMT5/MEP50)?
A: The IC50 was 101 to 1000 nM.

Q: O=S(=O)(NCC1CCN(Cc2ccco2)CC1)c1cccc2c(Cl)cccc12 [Compound 12-3, 5-chloro-N-((1-(furan-2-ylmethyl)piperidin-4-yl)methyl)naphthalene-1-sulfonamide] was tested. Which IC50 (PRMT5/MEP50) did it give?
A: Its IC50 is 101 to 1000 nM.

Q: What about the EC50 [1] of the same compound?
A: The EC50 was 10000 to 50000 nM.

Q: What does the source list for CCOc1c(C)cc(S(=O)(=O)NCC2CCN(Cc3c(-c4ccccc4)[nH]c4ccccc34)CC2)cc1C [Compound 11-3]?
A: EC50 (Z-138 cells): > 20000 nM; IC50 (PRMT5/MEP50): 101 to 1000 nM

Reference: US20170198006A1, “PRMT5 INHIBITORS AND USES THEREOF” (Epizyme, Inc., priority 2014, published 2017)
